Assays:
[1] = ME-344 plasma pharmacokinetics, non-compartmental analysis; assay type: in vivo, human; settings: for Cmax, Mean (%CV): ME-344 10 mg/kg 60-minute infusion
Method: Serial blood samples for ME-344 pharmacokinetic analyses were collected 5 min after the end of ME-344 infusion and at 1, 2, 3, 6 and 24 h after the completion of infusion on days 1 and 15 of cycle 1, and ME-344 plasma concentrations were determined using validated analytical methods. ME-344 pharmacokinetic parameters were estimated using actual sampling times by non-compartmental analysis.

[2] = system: solid tumors; design: method as in PMID 25411085; settings: cited from earlier work
[3] = system: patients with ovarian and small cell lung cancer; design: method as in PMID 28283779; settings: ME-344 at 10 mg/kg in combination with topotecan; cited from earlier work
[4] = system: early HER2-negative breast cancer; design: method as in PMID 31597662; settings: mitochondrial on-target effect; cited from earlier work
[5] = system: panel of human cancer cells; settings: cells representative of most major organ systems; preclinical screening studies; cited from earlier work
[6] = system: PyMT breast cancer and Lewis lung carcinoma models; design: method as in PMID 27292634; settings: in combination with TKIs; cited from earlier work

Question: With `Cc1c(O)ccc2c1OC[C@@H](c1ccc(O)cc1)[C@H]2c1ccc(O)cc1` [ME-344] as the molecule, how does the “AUCinf, Mean (%CV)” value ([1]; Cycle 1 Day 1 (n = 17)) read?
Answer: The value was 23.0 (34%) µg×h/mL.

Question: What about the “AUClast, Mean (%CV)” value ([1]; Cycle 1 Day 1 (n = 17)) of the same molecule?
Answer: Its value is 22.6 (34%) µg×h/mL.

Question: And the “Tmax, median (range)” value ([1]; Cycle 1 Day 1 (n = 17))?
Answer: Its value is 1.08 [1.03 – 1.33] hours.

Question: What about the “Cmax, Mean (%CV)” value ([1]; Cycle 1 Day 1 (n = 17)) of the same molecule?
Answer: Its value is 12.60 (42%) µg/mL.

Question: And the “AUCinf, Mean (%CV)” value ([1]; Cycle 1 Day 15 (n = 15))?
Answer: Its value is 23.7 (38%) ^A µg×h/mL.

Question: What about the “AUClast, Mean (%CV)” value ([1]; Cycle 1 Day 15 (n = 15)) of the same molecule?
Answer: Its value is 22.4 (35%) ^A µg×h/mL.

Question: What about the “Half-life (terminal phase t1/2), Mean (%CV)” value ([1]; Cycle 1 Day 15 (n = 15)) of the same molecule?
Answer: Its value is 5.1 (38%) ^A h.

Question: What about the “Tmax, median (range)” value ([1]; Cycle 1 Day 15 (n = 18)) of the same molecule?
Answer: Its value is 1.17 [1.03 – 2.23] hours.

Question: And the “Cmax, Mean (%CV)” value ([1]; Cycle 1 Day 15 (n = 18))?
Answer: Its value is 11.83 (47%) µg/mL.

Question: What about the pre-dose plasma concentrations ([1]; day 15) of the same molecule?
Answer: Its pre-dose plasma concentrations is “negligible”.

Question: And the dose limiting toxicity ([2]; at higher doses than 10 mg/kg)?
Answer: Its dose limiting toxicity is “peripheral neuropathy”.

Question: What about the “recommended phase 2 dose” value ([2]; intravenously (IV) once weekly for 3 weeks in a 28-day cycle) of the same molecule?
Answer: Its value is 10 mg/kg.

Question: What about the tolerability [3] of the same molecule?
Answer: The tolerability was “well tolerated”.

Question: What about the “succinate dehydrogenase and HIF1α staining” value [4] of the same molecule?
Answer: The value was “decrease”.

Question: What about the antiproliferative activity [5] of the same molecule?
Answer: Its antiproliferative activity is “broad antiproliferative activity”.

Question: What about the tumor control [6] of the same molecule?
Answer: The tumor control was “synergistic tumor control”.
